This note sets out measurements from US12331059B2 (priority 2019, dated 2025).

Experiment [1] deals with U937 leukemia cells. Set-up: species or system NSG mice. Conditions: mouse; for The proportion of human leukemia cells in bone marrow of mice / The proportion of human leukemia cells in peripheral blood of mice / The proportion of human leukemia cells in spleen of mice: in vivo.
Experiment [2] has as its system MV4-11 cells. Nature of the experiment: cells. It is filed as cell-based. To be noted: Homo sapiens, MV4-11, 48 h.

For `C[C@H]1[C@H](OC(=O)CCC(=O)O)O[C@@H]2O[C@@]3(C)CC[C@H]4[C@H](C)CC[C@@H]1[C@@]24OO3` [artesunate, reference compound], in experiment [1], the “The proportion of human leukemia cells in bone marrow of mice” value stood at 91.28 ± 2.20, the “The proportion of human leukemia cells in peripheral blood of mice” value worked out at 21.92 ± 2.58 and the “The proportion of human leukemia cells in spleen of mice” value was determined as 49.77 ± 9.28.

Regarding `Cc1ncsc1-c1ccc(CNC(=O)C2CC(O)CN2C(=O)C(NC(=O)CCCNC(=O)C23CC4CC(C2)C2(OOC5(CCCCC5)O2)C(C4)C3)C(C)(C)C)cc1` (stereo not drawn) [CL-29], 3.5 µM corresponded to half-maximal inhibition in experiment [2] (IC50).

For the compound `Cc1ncsc1-c1ccc(CNC(=O)C2CC(O)CN2C(=O)C(NC(=O)CNC(=O)CC2OC3OC4(C)CCC5C(C)CCC(C2C)C35OO4)C(C)(C)C)cc1` (stereo not drawn) [CL-12], it took 1.1 µM to reach half-maximal inhibition in experiment [2] (IC50).

Turning to `Cc1ncsc1-c1ccc(CNC(=O)C2CC(O)CN2C(=O)C(NC(=O)CCOCCOCCOCCNC(=O)OCCCC2OC3OC4(C)CCC5C(C)CCC(C2C)C35OO4)C(C)(C)C)cc1` (stereo not drawn) [CL-3], the IC50 – broadly, the point on the concentration scale where inhibition reaches its midpoint – in experiment [2] was 0.52 µM.

`Cc1ncsc1-c1ccc(CNC(=O)C2CC(O)CN2C(=O)C(NC(=O)CCOCCOCCNC(=O)OCCC2OC3OC4(C)CCC5C(C)CCC(C2C)C35OO4)C(C)(C)C)cc1` (stereo not drawn) [CL-18] came in with an IC50 in experiment [2] of 2.66 µM.

Regarding `Cc1ncsc1-c1ccc(CNC(=O)C2CC(O)CN2C(=O)C(NC(=O)CCOCCNC(=O)OCCC2OC3OC4(C)CCC5C(C)CCC(C2C)C35OO4)C(C)(C)C)cc1` (stereo not drawn) [CL-17], in experiment [2], the IC50 was 0.3 µM.

`Cc1ncsc1-c1ccc(CNC(=O)C2CC(O)CN2C(=O)C(NC(=O)CCOCCOCCOCCNC(=O)C23CC4CC(C2)C2(OOC5(CCCCC5)O2)C(C4)C3)C(C)(C)C)cc1` (stereo not drawn) [CL-27] had an IC50 in experiment [2] of 12 µM.

Turning to `Cc1ncsc1-c1ccc(CNC(=O)C2CC(O)CN2C(=O)C(NC(=O)Cc2ccc(CNC(=O)C34CC5CC(C3)C3(OOC6(CCCCC6)O3)C(C5)C4)cc2)C(C)(C)C)cc1` (stereo not drawn) [CL-31], the IC50 in experiment [2] came out at 3.04 µM.

Take `Cc1ncsc1-c1ccc(CNC(=O)C2CC(O)CN2C(=O)C(NC(=O)CNC(=O)C23CC4CC(C2)C2(OOC5(CCCCC5)O2)C(C4)C3)C(C)(C)C)cc1` (stereo not drawn) [CL-28]: the midpoint of inhibition in experiment [2], the IC50, lay at 9.72 µM.

The compound `Cc1ncsc1-c1ccc(CNC(=O)C2CC(O)CN2C(=O)C(NC(=O)Cc2ccc(CNC(=O)OCCC3OC4OC5(C)CCC6C(C)CCC(C3C)C46OO5)cc2)C(C)(C)C)cc1` (stereo not drawn) [CL-23] yielded an IC50 in experiment [2] of 6.2 µM.

Compound `Cc1ncsc1-c1ccc(CNC(=O)C2CC(O)CN2C(=O)C(NC(=O)CCCCNC(=O)C23CC4CC(C2)C2(OOC5(CCCCC5)O2)C(C4)C3)C(C)(C)C)cc1` (stereo not drawn) [CL-30] gave an IC50 in experiment [2] of 8.31 µM.

For the compound `Cc1ncsc1-c1ccc(CNC(=O)C2CC(O)CN2C(=O)C(NC(=O)CCNC(=O)OCCCC2OC3OC4(C)CCC5C(C)CCC(C2C)C35OO4)C(C)(C)C)cc1` (stereo not drawn) [CL-8], in experiment [1], the “inhibition towards the growth of U937 leukemia cells in vivo” value is “strong inhibition”, the “The proportion of human leukemia cells in bone marrow of mice” value was found to be 0.38 ± 0.08, the “The proportion of human leukemia cells in peripheral blood of mice” value is reported as 0.96 ± 0.16 and the “The proportion of human leukemia cells in spleen of mice” value is 11.39 ± 21.3. The compound further registered an IC50 in experiment [2] of 0.24 µM.

As to `Cc1ncsc1-c1ccc(CNC(=O)C2CC(O)CN2C(=O)C(NC(=O)CCOCCOCCNC(=O)C23CC4CC(C2)C2(OOC5(CCCCC5)O2)C(C4)C3)C(C)(C)C)cc1` (stereo not drawn) [CL-26], it took 8.1 µM to reach half-maximal inhibition in experiment [2] (IC50).

In experiment [2], `Cc1ncsc1-c1ccc(CNC(=O)C2CC(O)CN2C(=O)C(NC(=O)CNC(=O)OCCCC2OC3OC4(C)CCC5C(C)CCC(C2C)C35OO4)C(C)(C)C)cc1` (stereo not drawn) [CL-4] had an IC50 of 0.91 µM.

`Cc1ncsc1-c1ccc(CNC(=O)C2CC(O)CN2C(=O)C(NC(=O)CCOCCOCCNC(=O)OCCCC2OC3OC4(C)CCC5C(C)CCC(C2C)C35OO4)C(C)(C)C)cc1` (stereo not drawn) [CL-2] came in with an IC50 in experiment [2] of 0.59 µM.

Compound `Cc1ncsc1-c1ccc(CNC(=O)C2CC(O)CN2C(=O)C(NC(=O)Cc2ccc(CNC(=O)CC3OC4OC5(C)CCC6C(C)CCC(C3C)C46OO5)cc2)C(C)(C)C)cc1` (stereo not drawn) [CL-15] showed an IC50 in experiment [2] of 0.52 µM.

The compound `Cc1ncsc1-c1ccc(CNC(=O)C2CC(O)CN2C(=O)C(NC(=O)CCOCCNC(=O)CC2OC3OC4(C)CCC5C(C)CCC(C2C)C35OO4)C(C)(C)C)cc1` (stereo not drawn) [CL-9] registered an IC50 in experiment [2] of 4.67 µM.

Compound `Cc1ncsc1-c1ccc(CNC(=O)C2CC(O)CN2C(=O)C(NC(=O)CCNC(=O)OCCC2OC3OC4(C)CCC5C(C)CCC(C2C)C35OO4)C(C)(C)C)cc1` (stereo not drawn) [CL-24] showed an IC50 in experiment [2] of 0.5 µM.

`Cc1ncsc1-c1ccc(CNC(=O)C2CC(O)CN2C(=O)C(NC(=O)CCCCNC(=O)OCCC2OC3OC4(C)CCC5C(C)CCC(C2C)C35OO4)C(C)(C)C)cc1` (stereo not drawn) [CL-22] yielded an IC50 in experiment [2] of 0.2 µM.

Consider `Cc1ncsc1-c1ccc(CNC(=O)C2CC(O)CN2C(=O)C(NC(=O)CCOCCOCCNC(=O)CC2OC3OC4(C)CCC5C(C)CCC(C2C)C35OO4)C(C)(C)C)cc1` (stereo not drawn) [CL-10], for which the midpoint of inhibition in experiment [2], the IC50, lay at 44.5 µM.

`Cc1ncsc1-c1ccc(CNC(=O)C2CC(O)CN2C(=O)C(NC(=O)CCCCNC(=O)OCCCC2OC3OC4(C)CCC5C(C)CCC(C2C)C35OO4)C(C)(C)C)cc1` (stereo not drawn) [CL-6]: in experiment [2], the IC50 is 5.3 µM.

In experiment [2], `Cc1ncsc1-c1ccc(CNC(=O)C2CC(O)CN2C(=O)C(NC(=O)CCCNC(=O)OCCC2OC3OC4(C)CCC5C(C)CCC(C2C)C35OO4)C(C)(C)C)cc1` (stereo not drawn) [CL-21] registered an IC50 of 0.84 µM.

As for `Cc1ncsc1-c1ccc(CNC(=O)C2CC(O)CN2C(=O)C(NC(=O)CCNC(=O)CCC(=O)NN2C(=O)C(C)C3CCC(C)C4CCC5(C)OOC43C2O5)C(C)(C)C)cc1` (stereo not drawn) [CL-40], the IC50 in experiment [2] amounted to 6.08 µM.

Regarding `Cc1ncsc1-c1ccc(CNC(=O)C2CC(O)CN2C(=O)C(NC(=O)CCOCCOCCOCCNC(=O)CC2OC3OC4(C)CCC5C(C)CCC(C2C)C35OO4)C(C)(C)C)cc1` (stereo not drawn) [CL-11], the IC50 in experiment [2] amounted to 29.6 µM.

In experiment [2], `Cc1ncsc1-c1ccc(CNC(=O)C2CC(O)CN2C(=O)C(NC(=O)CCNC(=O)C23CC4CC(C2)C2(OOC5(CCCCC5)O2)C(C4)C3)C(C)(C)C)cc1` (stereo not drawn) [CL-32] gave an IC50 of 3.38 µM.

`Cc1ncsc1-c1ccc(CNC(=O)C2CC(O)CN2C(=O)C(NC(=O)CCOCCOCCOCCNC(=O)OCCC2OC3OC4(C)CCC5C(C)CCC(C2C)C35OO4)C(C)(C)C)cc1` (stereo not drawn) [CL-19] gave an IC50 in experiment [2] of 0.5 µM.

With `Cc1ncsc1-c1ccc(CNC(=O)C2CC(O)CN2C(=O)C(NC(=O)CCCNC(=O)OCCCC2OC3OC4(C)CCC5C(C)CCC(C2C)C35OO4)C(C)(C)C)cc1` (stereo not drawn) [CL-5], in experiment [2], the IC50 was 0.55 µM.

On to `Cc1ncsc1-c1ccc(CNC(=O)C2CC(O)CN2C(=O)C(NC(=O)CCOCCNC(=O)C23CC4CC(C2)C2(OOC5(CCCCC5)O2)C(C4)C3)C(C)(C)C)cc1` (stereo not drawn) [CL-25], for which the IC50 in experiment [2] amounted to 5.5 µM.

In the case of `Cc1ncsc1-c1ccc(CNC(=O)C2CC(O)CN2C(=O)C(NC(=O)CCCNC(=O)CC2OC3OC4(C)CCC5C(C)CCC(C2C)C35OO4)C(C)(C)C)cc1` (stereo not drawn) [CL-13], inhibition in experiment [2] was half-maximal at 3.1 µM (IC50).

`Cc1ncsc1-c1ccc(CNC(=O)C2CC(O)CN2C(=O)C(NC(=O)Cc2ccc(CNC(=O)OCCCC3OC4OC5(C)CCC6C(C)CCC(C3C)C46OO5)cc2)C(C)(C)C)cc1` (stereo not drawn) [CL-7] showed a half-inhibitory concentration (IC50) in experiment [2] of 0.46 µM.
